Laboratory results taken from paper PMC12114796, “Self-Assembled Cannabigerol-Based Nanoparticles: Design, Synthesis, and Antiproliferative Activity” (Pharmaceutics, 2025).
Like-named read-outs stand apart in the source and are kept apart here.

How the values were obtained:
[1] = system: HT-29 (human colorectal adenocarcinoma) cells; assay: Cell viability, trypan blue dye exclusion assay (antiproliferative activity); type: cell-based; settings: HT-29, 72 h
Protocol: (§1) The cell lines used in our study were purchased from ATCC (American Type Culture Collection). […] LN229 (human glioblastoma) cells were cultured in DMEM (D2902, Merck) supplemented with 3.5 g/L glucose and 5% FCS. NaHCO3 (S5761, Merck), as indicated in the manufacturer’s instructions, 100 U/mL penicillin, 100 μg/mL streptomycin, and 0.25 μg/mL amphotericin B (A5955, Merck) were added to the culture media. The cells were maintained at 37 °C in a humidified atmosphere incubator containing 5% carbon dioxide in air.
(§2) The cell viability was analyzed by a trypan blue dye exclusion assay. Briefly, 3–4 × 10^4 cells were seeded in each well of a 24-well cell culture plate and treated with test drugs or NPs at concentrations ranging from 1 to 30 nM and from 0.01 to 20 μM, respectively, after 24 of growth in standard conditions. After 72 h from the treatment, the cells were detached by trypsinization and counted by optical microscope.

[2] = system: LN229 (human glioblastoma) cells; assay: as above; type: cell-based
Protocol: as §1, §2

[3] = system: MSTO-211H (human biphasic mesothelioma) cells; assay: as above; type: cell-based; settings: 72 h
Protocol: as §1, §2

[4] = system: MeT-5A (human mesothelium, non-tumorigenic) cells; assay: as above; type: cell-based; settings: 72 h
Protocol: as §1, §2

[5] = system: LN229, HT-29, MSTO-211H and MeT-5A cells; assay: Antiproliferative activity compared across the cell line panel; type: cell-based; settings: Homo sapiens; all four cell lines, 72 h; read-out: GI50 values (range over the cell lines)
Protocol: The cell lines used in our study were purchased from ATCC (American Type Culture Collection). Specifically, we used LN-229 (ATCC CRL-2611), HT-29 (ATCC HTB-38), and MSTO-211H (ATCC CRL-2081). MeT-5A (ATCC CRL-9444), MSTO-211H (human biphasic mesothelioma), and Met-5A (human mesothelium) cells were grown in RPMI 1640 (R6504, Merck) supplemented with 2.38 g/L Hepes (H3375, Merck, St. Louis, MO, USA), 0.11 g/L pyruvate sodium (P5280, Merck), 2.5 g/L glucose (G6152, Merck), and 10% heat-inactivated fetal calf serum (FCS, F7524, Merck). HT-29 (human colorectal adenocarcinoma) cells were grown in RPMI 1640 (R6504, Merck) supplemented with 10% heat-inactivated FCS. LN229 (human glioblastoma) cells were cultured in DMEM (D2902, Merck) supplemented with 3.5 g/L glucose and 5% FCS. NaHCO3 (S5761, Merck), as indicated in the manufacturer’s instructions, 100 U/mL penicillin, 100 μg/mL streptomycin, and 0.25 μg/mL amphotericin B (A5955, Merck) were added to the culture media. The cells were maintained at 37 °C in a humidified atmosphere incubator containing 5% carbon dioxide in air.
The cell viability was analyzed by a trypan blue dye exclusion assay. […] After 72 h from the treatment, the cells were detached by trypsinization and counted by optical microscope. […]

[6] = system: LN229 cells; assay: Cell cycle analysis by flow cytometry (propidium iodide); type: cell-based, human; settings: LN229, 48 h
Protocol: A total of 2 × 10^5 LN229 cells were seeded in Petri culture plates, left to grow for 24 h in standard conditions, and then treated with CPT and Np3b at the indicated concentrations. After 48 h, the cells were harvested, centrifuged, combined with ice-cold 70% w/v ethanol, and left at 4 °C for 20 min. Then, the cells were centrifuged, and the pellet was resuspended in a final volume of 300 μL PBS containing 0.1 mg mL^−1 RNAse (R6513, Merck) and […] propidium iodide (P4170, Merck). The DNA content was quantified by a BD FACSAria III flow cytometer (BD Life Sciences) and the data were analyzed by BD FACSDiva software (version 9.0). Statistical analysis was performed by Student’s t-test.

[7] = system: microtubules in LN229 cells; assay: Confocal microscopy of microtubule status (anti-β-tubulin staining); type: cell-based, human; settings: LN229, 4 h; Desa 3 µM, Np1b 200 µM, PTX and Np2b at indicated concentrations
Protocol: LN229 cells (3 × 10^4) were seeded in 4-well cell culture chamber on a glass slide and cultured up to 50–60% confluence. […] After incubation, the cells were gently washed twice with PBS, fixed with 4% formaldehyde at room temperature for 15 min, washed twice with PBS, and permeabilized with 0.1% Triton X-100 (T8787, Merck) in PBS for 5 min in the dark. Again, the cells were washed twice with PBS and incubated for 30 min in the dark with 7% FCS in PBS. […] After washing twice with PBS, 0.001 mg/mL DAPI (MBD0015, Merck) was added for 15 min, then the cells were washed with PBS, and the coverslips were mounted on glass slides using Fluoroshield^TM (F6182, Merck). […] Particle counting and size distribution were estimated using the built-in Analyze Particles plugin in Image J (Fiji).

Row | SMILES | GI50 [1] [nM] | GI50 ([2]; LN-229, 72 h) [nM] | GI50 [3] [nM] | GI50 [4] [nM] | GI50 [5] [nM] | GI50 ([1]; mean ± SD, read-out: GI50) [nM] | GI50 ([2]; LN-229, LN229, 72 h, mean ± SD, read-out: GI50) [nM] | GI50 ([3]; mean ± SD, read-out: GI50) [nM] | GI50 ([4]; mean ± SD, read-out: GI50) [nM] | cells in G2/M phase ([6]; 20 nM CPT (control 11.7%)) [%] | cells in G1 phase ([6]; 20 nM CPT (control 69.4%)) [%] | effect on microtubule network [7]
1 | CCCCCc1cc(O)c(C/C=C(\C)CCC=C(C)C)c(O)c1 [CBG, Cannabigerol] | 9700 ± 200 | 5900 ± 1300 | 16000 ± 2000 | 16000 ± 2000 | 5900 to 16000 | – | – | – | – | – | – | –
2 | CC[C@@]1(O)C(=O)OCc2c1cc1n(c2=O)Cc2cc3ccccc3nc2-1 [CPT, camptothecin] | – | – | – | – | – | 7.9 ± 0.8 | 7.9 ± 0.1 | 3.3 ± 1 | 7.8 ± 0.2 | 33.4 | 49.4 | –
3 | CC(=O)O[C@H]1C(=O)[C@@]2(C)[C@H]([C@H](OC(=O)c3ccccc3)[C@]3(O)C[C@H](OC(=O)[C@H](O)[C@@H](NC(=O)c4ccccc4)c4ccccc4)C(C)=C1C3(C)C)[C@]1(OC(C)=O)CO[C@@H]1C[C@@H]2O [PTX, paclitaxel] | 2.8 ± 0.2 | 4.2 ± 0.7 | 3.3 ± 0.6 | 4.4 ± 0.1 | – | – | – | – | – | – | – | polymerizing effect
